The values that follow come from ChEMBL document CHEMBL5543121, “Drug Repurposing of ACT001 to Discover Novel Promising Sulfide Prodrugs with Improved Safety and Potent Activity for Neutrophil-Mediated Antifungal Immunotherapy” (J Med Chem, 2024).

The nature of data set [1]: Cytotoxicity against mouse neutrophils assessed as cell viability at 40 uM relative to control. The data set is classed as toxicity, cell-based, Neutrophil. Particulars: mouse neutrophils, read-out: Activity.
The nature of data set [2]: Inhibition of fungal curdlan induced PD-L1 expression in mouse neutrophils at 40 uM relative to control. The data set is classed as functional, Neutrophil. Particulars: Mus musculus, Neutrophil.

For the compound `CC1=C2CC[C@@](C)(O)[C@@H]2[C@H]2OC(=O)[C@@H](CSCCC(C)C)[C@@H]2CC1`, the viability at 40 µM in data set [1] came to 101%. Besides, in data set [2], the inhibition at 40 µM came out at 25.2%.

Consider `CC1=C2CC[C@@](C)(O)[C@@H]2[C@H]2OC(=O)[C@@H](CSc3ccc(Cl)c(Cl)c3)[C@@H]2CC1`, for which the viability at 40 µM in data set [1] was 86.6%. The inhibition at 40 µM in data set [2] was found to be 71.1%.

`CC1=C2CC[C@@](C)(O)[C@@H]2[C@H]2OC(=O)[C@@H](CSc3c(Cl)cccc3Cl)[C@@H]2CC1`: in data set [1], the viability at 40 µM is 57.5%. Further, the inhibition at 40 µM in data set [2] amounted to 41.6%.

For `C[C@@]1(O)CC[C@]23O[C@@]2(C)CC[C@@H]2[C@H](OC(=O)[C@H]2CS(=O)(=O)c2ccc(Cl)c(Cl)c2)[C@@H]13`, in data set [1], the viability at 40 µM is 65.2%. In data set [2], this compound showed an inhibition at 40 µM of 72.7%.

Regarding `C[C@@]1(O)CC[C@]23O[C@@]2(C)CC[C@@H]2[C@H](OC(=O)[C@H]2CS(=O)(=O)c2ccncc2)[C@@H]13`, the viability at 40 µM in data set [1] was found to be 79.4%. This compound also gave an inhibition at 40 µM in data set [2] of 65.4%.

For `C[C@@]1(O)CC[C@]23O[C@@]2(C)CC[C@@H]2[C@H](OC(=O)[C@H]2C[S+]([O-])c2ccc(Cl)cc2Cl)[C@@H]13` (stereo in doubt; 23a), in data set [1], the viability at 40 µM is 59.2%. In addition, 40 µM produced 61.1% inhibition in data set [2].

Take `CC(C)CCS(=O)(=O)C[C@@H]1C(=O)O[C@H]2[C@H]1CC[C@]1(C)O[C@@]13CC[C@@](C)(O)[C@H]23`: the viability at 40 µM in data set [1] is 68.7%. This compound also had an inhibition at 40 µM in data set [2] of 60.9%.

In the case of `COc1ccc(SC[C@@H]2C(=O)O[C@H]3[C@H]2CCC(C)=C2CC[C@@](C)(O)[C@@H]23)cc1`, the viability at 40 µM in data set [1] came to 88.8%. The compound also registered an inhibition at 40 µM in data set [2] of 63.2%.

`C[C@@]1(O)CC[C@]23O[C@@]2(C)CC[C@@H]2[C@H](OC(=O)[C@H]2CS(=O)(=O)c2ccc(F)cc2)[C@@H]13`: in data set [1], the viability at 40 µM was found to be 50.7%. 40 µM produced 82.6% inhibition in data set [2].

Consider `CC1=C2CC[C@@](C)(O)[C@@H]2[C@H]2OC(=O)[C@@H](CSc3ccc(F)cc3)[C@@H]2CC1`, for which the viability at 40 µM in data set [1] amounted to 74.6%. This compound displayed an inhibition at 40 µM in data set [2] of 45.6%.

For the compound `CC1=C2CC[C@@](C)(O)[C@@H]2[C@H]2OC(=O)[C@@H](CSc3ccc(Cl)cc3Cl)[C@@H]2CC1`, the viability at 40 µM in data set [1] amounted to 20.8%. Also, in data set [2], 40 µM produced 52.6% inhibition.

For the compound `CC1=C2CC[C@@](C)(O)[C@@H]2[C@H]2OC(=O)[C@@H](CS(=O)(=O)C3CCCCC3)[C@@H]2CC1`, the viability at 40 µM in data set [1] came to 66.3%. For the same compound, the inhibition at 40 µM in data set [2] was 49.5%.

As for `COc1ccc(S(=O)(=O)C[C@@H]2C(=O)O[C@H]3[C@H]2CC[C@]2(C)O[C@@]24CC[C@@](C)(O)[C@H]34)cc1`, the viability at 40 µM in data set [1] turned out to be 54.8%. In data set [2], this compound gave an inhibition at 40 µM of 77.4%.

As for `CC1=C2CC[C@@](C)(O)[C@@H]2[C@H]2OC(=O)[C@@H](CSc3ccc(C)cc3)[C@@H]2CC1`, in data set [1], the viability at 40 µM was 70.6%. In data set [2], this compound registered an inhibition at 40 µM of 34.8%.

Turning to `C[C@@]1(O)CC[C@]23O[C@@]2(C)CC[C@@H]2[C@H](OC(=O)[C@H]2CS(=O)(=O)C2CCCCC2)[C@@H]13`, in data set [1], the viability at 40 µM was 76.2%. The same compound had an inhibition at 40 µM in data set [2] of 65.3%.

As for `CC1=C2CC[C@@](C)(O)[C@@H]2[C@H]2OC(=O)[C@@H](C)[C@@H]2CC1`, in data set [1], the viability at 40 µM came to 98.6%. This compound had an inhibition at 40 µM in data set [2] of 17.3%.

Consider `COc1ccc(S(=O)(=O)C[C@@H]2C(=O)O[C@H]3[C@H]2CCC(C)=C2CC[C@@](C)(O)[C@@H]23)cc1`, for which the viability at 40 µM in data set [1] stood at 39.5%. Also, testing at 40 µM in data set [2] gave an inhibition of 63.5%.

Regarding `CC1=C2CC[C@@](C)(O)[C@@H]2[C@H]2OC(=O)[C@@H](CSc3ncccn3)[C@@H]2CC1`, in data set [1], the viability at 40 µM came to 60.2%. In addition, in data set [2], the inhibition at 40 µM is 49.9%.
